Assays:
[1] = test system: skin; assay: Skin exfoliation via D-Squame discs and image analysis; assay type: in vivo, human; details: tested previously in a base, activity over the placebo, 1.0% active in formula
From the text: The subjects included in this study were 120 females between the ages of 21 and 65 years, all meeting the screening criteria of good health and not being pregnant or lactating. The subjects reported for testing without moisturizers or any other products on their hands and baseline measurements were taken. They were randomly assigned to one of the following eight treatment groups. They were given the product to take home and self-administer to their right hand only, twice a day in the morning after washing and in the evening at least 15 minutes before bedtime for four weeks. The left hand served as the untreated control site. The subjects were only allowed to use the test product and specifically log its use in a daily diary provided. At the end of two and four weeks the subjects returned for testing without applying the product for at least 12 hours and they were re-evaluated under the same conditions. Skin Exfoliation via D-Squame Discs Method and Image Analysis Four D-Squame discs were firmly and evenly pressed on the face and the back of each hand with a hand held uniform pressure device and removed by gently pulling away from the skin. The D-Squame discs were mounted on clear microscope slides and labeled according to panelist name and visit. Desquamation was evaluated from the D-Squame discs via the image analyzer. Skin evaluation was carried out before treatment, and after two and four weeks of treatment. The OPTIMA image analyzer was used to evaluate skin flakiness. The D-Squame samples containing the stratum corneocytes are placed under a camera on top of a light table and each image is imported into the image analyzer. The average Gray Value corresponding to the sample density is measured. The denser the sample the higher the Gray value difference. Skin exfoliation was evaluated by measuring the amount of flakes removed from the skin surface using D-Squame discs and analyzing them via the IA method. In this study several ferment combinations of N-Acetyl D-Glucosamine and Mannose 6-Phosphate vs. the placebo, the broth and the ferment as controls, for their effect on skin desquamation. […] Another series of tests were conducted as described above. The concentration of N-acetyl D-glucosamine and mannose 6-phosphate was reduced by 10 fold without compromising their activity. Table 4 below summarizes the actual active concentrations used with a brief description along with their activity.

[2] = test system: UV induced peroxidation of lipids; assay: inhibition of UV induced peroxidation of lipids (liposomal assay, Pelle et al.); assay type: biochemical
From the text: Caffeine was subjected to bioconversion at concentration as indicated(w/v) in water or in a mixture of structured waters (I/S 60/40).
P. ulei is an equatorial plant known to have anti-inflammatory properties. A. purchyriminor is an equatorial plant containing inhibitors of PAF (Platelet Activating Factor). […] The untreated extracts at a concentration 1% each, are combined and diluted to 0.1% each and subjected to bioconversion.

Compound | Decrease in Flakiness 2 wk [1] [%] | Decrease in Flakiness 4 wk [1] [%] | Inhibition of lipid peroxidation ([2]; Caffeine Concentration 0.05%) [%] | Inhibition of lipid peroxidation ([2]; Caffeine Concentration 0.25%) [%] | Inhibition of lipid peroxidation ([2]; Caffeine Concentration 0.5%) [%] | further results
CC(=O)N[C@H]1C(O)O[C@H](CO)[C@@H](O)[C@@H]1O (stereo partly shown) [1% N-Acetyl Glucosamine, N-Acetyl Glucosamine] | 16 | 27 | – | – | – | –
Cn1c(=O)c2c(ncn2C)n(C)c1=O [Caffeine Non bioconverted H2O, Caffeine] | – | – | 30 | 54 | 66 | –
O=C[C@@H](O)[C@@H](O)[C@H](O)[C@H](O)COP(=O)(O)O [1% Mannose 6-Phosphate, Mannose 6-Phosphate] | 22 | 29 | – | – | – | –
Cn1c(=O)c2c(ncn2C)n(C)c1=O [Caffeine Non bioconverted I/S water, Caffeine] | – | – | 24 | 58 | 66 | –
Oc1ccc(C=Cc2cc(O)cc(O)c2)cc1 [Resveratrol Nonbioconverted, Resveratrol] | – | – | – | – | – | Anti-oxidant activity ([2]; Concentration of Resveratrol in S water 0.05%): 1.8%; Anti-oxidant activity ([2]; Concentration of Resveratrol in S water 0.25%): 8%; Anti-oxidant activity ([2]; Concentration of Resveratrol in S water 0.5%): 39%

— patent publication US20040043084A1, “Method of enhancing biological activity of plant extracts” (priority 2002, published 2004)
